# Source: ChEMBL document CHEMBL4715697, “Synthesis and biological activity of benzamide DNA minor groove binders” (2016)
# Experiments:
# Format in all cases: functional
# SW-620 = test: Growth inhibition of human SW-620 cells assessed as cell growth at 100 uM incubated for 48 hrs by sulforhodamine B assay relative to control; conditions: read-out: Activity
# UACC-62 = test: Growth inhibition of human UACC-62 cells assessed as cell growth at 0.1 uM incubated for 48 hrs by sulforhodamine B assay relative to control; conditions: read-out: Activity
# EKVX [1] = test: Growth inhibition of human EKVX cells assessed as cell growth at 0.01 uM incubated for 48 hrs by sulforhodamine B assay relative to control; conditions: read-out: Activity
# MCF7 [2] = test: Growth inhibition of human MCF7 cells assessed as cell growth at 0.01 uM incubated for 48 hrs by sulforhodamine B assay relative to control; conditions: read-out: Activity
# HCC 2998 [3] = test: Growth inhibition of human HCC 2998 cells assessed as cell growth at 100 uM incubated for 48 hrs by sulforhodamine B assay relative to control; conditions: read-out: Activity
# TK-10 [4] = test: Growth inhibition of human TK-10 cells incubated for 48 hrs by sulforhodamine B assay
# UACC-257 = test: Growth inhibition of human UACC-257 cells assessed as cell growth at 0.01 uM incubated for 48 hrs by sulforhodamine B assay relative to control; conditions: read-out: Activity
# PC-3 = test: Growth inhibition of human PC-3 cells assessed as cell growth at 100 uM incubated for 48 hrs by sulforhodamine B assay relative to control; conditions: read-out: Activity
# MDA-MB-435 = test: Growth inhibition of human MDA-MB-435 cells assessed as cell growth at 100 uM incubated for 48 hrs by sulforhodamine B assay relative to control; conditions: read-out: Activity
# NCI-H522 = test: Growth inhibition of human NCI-H522 cells assessed as cell growth at 100 uM incubated for 48 hrs by sulforhodamine B assay relative to control; conditions: read-out: Activity
# SF-295 = test: Growth inhibition of human SF-295 cells assessed as cell growth at 100 uM incubated for 48 hrs by sulforhodamine B assay relative to control; conditions: read-out: Activity
# NCI-H226 = test: Growth inhibition of human NCI-H226 cells incubated for 48 hrs by sulforhodamine B assay
# ACHN = test: Growth inhibition of human ACHN cells assessed as cell growth at 0.1 uM incubated for 48 hrs by sulforhodamine B assay relative to control; conditions: read-out: Activity
# SN12C [5] = test: Growth inhibition of human SN12C cells assessed as cell growth at 1 uM incubated for 48 hrs by sulforhodamine B assay relative to control; conditions: read-out: Activity
# TK-10 [6] = test: Growth inhibition of human TK-10 cells assessed as cell growth at 1 uM incubated for 48 hrs by sulforhodamine B assay relative to control; conditions: read-out: Activity
# SF-268 = test: Growth inhibition of human SF-268 cells assessed as cell growth at 0.1 uM incubated for 48 hrs by sulforhodamine B assay relative to control; conditions: read-out: Activity
# SN12C [7] = test: Growth inhibition of human SN12C cells assessed as cell growth at 0.01 uM incubated for 48 hrs by sulforhodamine B assay relative to control; conditions: read-out: Activity
# NCI-H460 = test: Growth inhibition of human NCI-H460 cells assessed as cell growth at 0.01 uM incubated for 48 hrs by sulforhodamine B assay relative to control; conditions: read-out: Activity
# T47D = test: Growth inhibition of human T47D cells assessed as cell growth at 100 uM incubated for 48 hrs by sulforhodamine B assay relative to control; conditions: read-out: Activity
# OVCAR-4 = test: Growth inhibition of human OVCAR-4 cells assessed as cell growth at 100 uM incubated for 48 hrs by sulforhodamine B assay relative to control; conditions: read-out: Activity
# LOX IMVI = test: Growth inhibition of human LOX IMVI cells incubated for 48 hrs by sulforhodamine B assay
# Malme-3M [8] = test: Growth inhibition of human Malme-3M cells incubated for 48 hrs by sulforhodamine B assay
# HCC 2998 [9] = test: Growth inhibition of human HCC 2998 cells assessed as cell growth at 0.1 uM incubated for 48 hrs by sulforhodamine B assay relative to control; conditions: read-out: Activity
# NCI-H23 = test: Growth inhibition of human NCI-H23 cells incubated for 48 hrs by sulforhodamine B assay
# Malme-3M [10] = test: Growth inhibition of human Malme-3M cells assessed as cell growth at 0.1 uM incubated for 48 hrs by sulforhodamine B assay relative to control; conditions: read-out: Activity
# EKVX [11] = test: Growth inhibition of human EKVX cells incubated for 48 hrs by sulforhodamine B assay
# NCI-H322M = test: Growth inhibition of human NCI-H322M cells incubated for 48 hrs by sulforhodamine B assay
# HCT-116 = test: Growth inhibition of human HCT-116 cells assessed as cell growth at 0.1 uM incubated for 48 hrs by sulforhodamine B assay relative to control; conditions: read-out: Activity
# MDA-MB-231 = test: Growth inhibition of human MDA-MB-231 cells assessed as cell growth at 1 uM incubated for 48 hrs by sulforhodamine B assay relative to control; conditions: read-out: Activity
# HT-29 [12] = test: Growth inhibition of human HT-29 cells assessed as cell growth at 0.01 uM incubated for 48 hrs by sulforhodamine B assay relative to control; conditions: read-out: Activity
# HT-29 [13] = test: Growth inhibition of human HT-29 cells incubated for 48 hrs by sulforhodamine B assay
# MCF7 [14] = test: Growth inhibition of human MCF7 cells assessed as cell growth at 0.1 uM incubated for 48 hrs by sulforhodamine B assay relative to control; conditions: read-out: Activity
# EKVX [15] = test: Growth inhibition of human EKVX cells assessed as cell growth at 100 uM incubated for 48 hrs by sulforhodamine B assay relative to control; conditions: read-out: Activity
# MDA-MB-468 = test: Growth inhibition of human MDA-MB-468 cells assessed as cell growth at 0.1 uM incubated for 48 hrs by sulforhodamine B assay relative to control; conditions: read-out: Activity
# [16] = read-out: LC50 (the source's name)
# [17] = read-out: pLC50 (the source's name) (converted)
structure (smiles),measurement,setting,value
CC(=O)Nc1cc(CCl)cc(NC(=O)c2ccc(C(=O)Nc3cccc(NC(=O)CCCN(C)C)c3)cc2)c1,growth at 100 µM,SW-620,92%
same,growth at 0.1 µM,UACC-62,103%
same,growth at 0.01 µM,EKVX [1],93%
same,growth at 0.01 µM,MCF7 [2],88%
same,growth at 100 µM,HCC 2998 [3],93%
same,GI50,TK-10 [4]; read-out: GI50,> 100 µM
same,CC50,TK-10 [4]; [16],> 100 µM
same,TGI,TK-10 [4]; read-out: TGI,> 100 µM
same,GI50,TK-10 [4]; read-out: pGI50 (converted),> 100 µM
same,CC50,TK-10 [4]; [17],> 100 µM
same,TGI,TK-10 [4]; read-out: pTGI,> 100 µM
same,growth at 0.01 µM,UACC-257,97%
same,growth at 100 µM,PC-3,88%
same,growth at 100 µM,MDA-MB-435,94%
same,growth at 100 µM,NCI-H522,83%
same,growth at 100 µM,SF-295,38%
same,GI50,NCI-H226; read-out: GI50,> 100 µM
same,CC50,NCI-H226; [16],> 100 µM
same,TGI,NCI-H226; read-out: TGI,> 100 µM
same,GI50,NCI-H226; read-out: pGI50 (converted),> 100 µM
same,CC50,NCI-H226; [17],> 100 µM
same,TGI,NCI-H226; read-out: pTGI,> 100 µM
same,growth at 0.1 µM,ACHN,101%
same,growth at 1 µM,SN12C [5],105%
same,growth at 1 µM,TK-10 [6],102%
same,growth at 0.1 µM,SF-268,101%
same,growth at 0.01 µM,SN12C [7],104%
same,growth at 0.01 µM,NCI-H460,105%
same,growth at 100 µM,T47D,71%
same,growth at 100 µM,OVCAR-4,89%
same,GI50,LOX IMVI; read-out: GI50,> 100 µM
same,LC50 (concentration giving 50% cell kill),LOX IMVI; read-out: LC50,> 100 µM
same,TGI,LOX IMVI; read-out: TGI,> 100 µM
same,GI50,LOX IMVI; read-out: pGI50 (converted),> 100 µM
same,LC50 (concentration giving 50% cell kill),LOX IMVI; read-out: pLC50 (converted),> 100 µM
same,TGI,LOX IMVI; read-out: pTGI,> 100 µM
same,GI50,Malme-3M [8]; read-out: GI50,> 100 µM
same,LC50 (concentration killing 50% of cells),Malme-3M [8]; read-out: LC50,> 100 µM
same,TGI,Malme-3M [8]; read-out: TGI,> 100 µM
same,GI50,Malme-3M [8]; read-out: pGI50 (converted),> 100 µM
same,LC50 (concentration killing 50% of cells),Malme-3M [8]; read-out: pLC50 (converted),> 100 µM
same,TGI,Malme-3M [8]; read-out: pTGI,> 100 µM
same,growth at 0.1 µM,HCC 2998 [9],94%
same,GI50,NCI-H23; read-out: GI50,> 100 µM
same,CC50,NCI-H23; [16],> 100 µM
same,TGI,NCI-H23; read-out: TGI,> 100 µM
same,GI50,NCI-H23; read-out: pGI50 (converted),> 100 µM
same,CC50,NCI-H23; [17],> 100 µM
same,TGI,NCI-H23; read-out: pTGI,> 100 µM
same,growth at 0.1 µM,Malme-3M [10],104%
same,GI50,EKVX [11]; read-out: GI50,> 100 µM
same,LC50,EKVX [11]; read-out: LC50,> 100 µM
same,TGI,EKVX [11]; read-out: TGI,> 100 µM
same,GI50,EKVX [11]; read-out: pGI50 (converted),> 100 µM
same,LC50,EKVX [11]; read-out: pLC50 (converted),> 100 µM
same,TGI,EKVX [11]; read-out: pTGI,> 100 µM
same,GI50,NCI-H322M; read-out: GI50,> 100 µM
same,CC50,NCI-H322M; [16],> 100 µM
same,TGI,NCI-H322M; read-out: TGI,> 100 µM
same,GI50,NCI-H322M; read-out: pGI50 (converted),> 100 µM
same,CC50,NCI-H322M; [17],> 100 µM
same,TGI,NCI-H322M; read-out: pTGI,> 100 µM
same,growth at 0.1 µM,HCT-116,107%
same,growth at 1 µM,MDA-MB-231,104%
same,growth at 0.01 µM,HT-29 [12],103%
same,GI50,HT-29 [13]; read-out: GI50,> 100 µM
same,CC50,HT-29 [13]; [16],> 100 µM
same,TGI,HT-29 [13]; read-out: TGI,> 100 µM
same,GI50,HT-29 [13]; read-out: pGI50 (converted),> 100 µM
same,CC50,HT-29 [13]; [17],> 100 µM
same,TGI,HT-29 [13]; read-out: pTGI,> 100 µM
same,growth at 0.1 µM,MCF7 [14],87%
same,growth at 100 µM,EKVX [15],84%
same,growth at 0.1 µM,MDA-MB-468,84%
